Peptide text beside a SMILES is read from it.
Key:
Assay type in all cases: cell-based
[1] = system: Pseudomonas syringae pv. syringae EPS94; assay: Antibacterial activity (MIC), in vitro growth inhibition; settings: Table S1, MIC range
Description: (§1) Erwinia amylovora PMV6076 (Institut National de la Recherche Agronomique, Angers, France), Pseudomonas syringae pv. syringae EPS94 (Institut de Tecnologia Agroalimentària, Universitat de Girona, Spain), and Xanthomonas axonopodis pv. vesicatoria 2133-2 (Instituto Valenciano de Investigaciones Agrarias, Valencia, Spain) were used as bacterial strains. They were stored and cultivated as previously described.
(§2) The minimum inhibitory concentration (MIC) was analyzed as previously described at 0.8, 1.6, 3.1, 6.2, 12.5, 25 and 50 μM [20].

[2] = system: Xanthomonas axonopodis pv. vesicatoria 2133-2; settings: Table S1, MIC range
Description: as §1, §2

[3] = system: erythrocyte suspensions of human blood; assay: Hemolytic activity, hemoglobin release; settings: human blood erythrocytes 5% v/v, absorbance 540 nm, percentage compared to melittin, three replicates; for Hemolysis (%) at 50 µM: peptide 50 μM (table prints 50 µM); for Hemolysis (%) at 125 µM: peptide 125 μM (table prints 125 µM)
Description: The hemolytic activity of the compounds was evaluated at 50 and 125 μM by determining hemoglobin release from erythrocyte suspensions of human blood (5% v/v) (Oxoid) using absorbance at 540 nm, as previously described. Three replicates for each peptide concentration were used.

Row | SMILES | MIC Pss [1] | MIC Xav [2] | Hemolysis (%) at 50 µM [3] | Hemolysis (%) at 125 µM [3]
1 | CC(C)C[C@@H]1NC(=O)[C@H](CCCCN)NC(=O)[C@H](Cc2c[nH]c3ccccc23)NC(=O)[C@H](CCCCN)NC(=O)[C@H](CC(C)C)NC(=O)[C@H](CCCCN)NC(=O)[C@H](CC(C)C)NC(=O)[C@H](CCCCN)NC(=O)[C@H](CCC(N)=O)NC(=O)[C@H](CCCCN)NC1=O [BPC016W, c(KLKLKWKLKQ)] (cyclo(KLKLKWKLKQ)) | 12.5 to 25 µM | 3.1 to 6.2 µM | 25% | 32%
2 | CC(C)C[C@@H]1NC(=O)[C@H](Cc2c[nH]c3ccccc23)NC(=O)[C@H](CCCCN)NC(=O)[C@H](CCCCN)NC(=O)[C@H](CCCCN)NC(=O)[C@H](CCCCN)NC(=O)[C@H](CCCCN)NC(=O)[C@H](CCC(N)=O)NC(=O)[C@H](CC(C)C)NC(=O)[C@H](CC(C)C)NC1=O [BPC058W, c(KKKKKWLLLQ)] (cyclo(KKKKKWLLLQ)) | 12.5 to 25 µM | 25 to 50 µM | 2% | 3%
3 | CC(C)C[C@@H]1NC(=O)[C@H](CCC(N)=O)NC(=O)[C@H](CC(C)C)NC(=O)[C@H](CCCCN)NC(=O)[C@H](CCCCN)NC(=O)[C@H](Cc2c[nH]c3ccccc23)NC(=O)[C@H](CCCCN)NC(=O)[C@H](CC(C)C)NC(=O)[C@H](CCCCN)NC(=O)[C@H](CCCCN)NC1=O [BPC092W, c(LKKLKWKKLQ)] (cyclo(KKLKWKKLQL)) | 6.2 to 12.5 µM | 3.1 to 6.2 µM | 2% | 3%
4 | CC(C)C[C@@H]1NC(=O)[C@H](CCCCN)NC(=O)[C@H](CCCCN)NC(=O)[C@H](CCCCN)NC(=O)[C@H](CCCCN)NC(=O)[C@H](CCC(N)=O)NC(=O)[C@H](CCCCN)NC(=O)[C@H](CC(C)C)NC(=O)[C@H](CC(C)C)NC(=O)[C@H](Cc2c[nH]c3ccccc23)NC1=O [BPC100W, c(KKKKLWLLKQ)] (cyclo(KKKKLWLLKQ)) | 12.5 to 25 µM | 6.2 to 12.5 µM | 19% | 27%
5 | CC(C)C[C@@H]1NC(=O)[C@H](CCCCN)NC(=O)[C@H](Cc2c[nH]c3ccccc23)NC(=O)[C@H](CC(C)C)NC(=O)[C@H](CCCCN)NC(=O)[C@H](CC(C)C)NC(=O)[C@H](CCCCN)NC(=O)[C@H](CCCCN)NC(=O)[C@H](CCC(N)=O)NC(=O)[C@H](CCCCN)NC1=O [BPC112W, c(KKLKLWKLKQ)] (cyclo(KKLKLWKLKQ)) | 3.1 to 6.2 µM | 6.2 to 12.5 µM | 3% | 4%
6 | CC(C)C[C@@H]1NC(=O)[C@H](CCCCN)NC(=O)[C@H](Cc2c[nH]c3ccccc23)NC(=O)[C@H](CCCCN)NC(=O)[C@H](CCCCN)NC(=O)[C@H](CC(C)C)NC(=O)[C@H](CCCCN)NC(=O)[C@H](CC(C)C)NC(=O)[C@H](CCC(N)=O)NC(=O)[C@H](CCCCN)NC1=O [BPC124W, c(LKLKKWKLKQ)] (cyclo(KKWKLKQLKL)) | 6.2 to 12.5 µM | 3.1 to 6.2 µM | 2% | 2%
7 | CC(C)C[C@@H]1NC(=O)[C@H](CCCCN)NC(=O)[C@H](CCCCN)NC(=O)[C@H](CCC(N)=O)NC(=O)[C@H](CCCCN)NC(=O)[C@H](CCCCN)NC(=O)[C@H](CCCCN)NC(=O)[C@H](Cc2c[nH]c3ccccc23)NC(=O)[C@H](CC(C)C)NC(=O)[C@H](CC(C)C)NC1=O [BPC148W, c(KKLLLWKKKQ)] (cyclo(KKKQKKLLLW)) | 12.5 to 25 µM | 12.5 to 25 µM | 1% | 2%
8 | CC(C)C[C@@H]1NC(=O)[C@H](CCCCN)NC(=O)[C@H](CCC(N)=O)NC(=O)[C@H](CCCCN)NC(=O)[C@H](CCCCN)NC(=O)[C@H](CCCCN)NC(=O)[C@H](Cc2c[nH]c3ccccc23)NC(=O)[C@H](CC(C)C)NC(=O)[C@H](CC(C)C)NC(=O)[C@H](CCCCN)NC1=O [BPC150W, c(KLKLLWKKKQ)] (cyclo(KKKQKLKLLW)) | 12.5 to 25 µM | 6.2 to 12.5 µM | 17% | 32%
9 | CC(C)C[C@@H]1NC(=O)[C@H](CCC(N)=O)NC(=O)[C@H](CCCCN)NC(=O)[C@H](CCCCN)NC(=O)[C@H](CCCCN)NC(=O)[C@H](Cc2c[nH]c3ccccc23)NC(=O)[C@H](CC(C)C)NC(=O)[C@H](CC(C)C)NC(=O)[C@H](CCCCN)NC(=O)[C@H](CCCCN)NC1=O [BPC152W, c(LKKLLWKKKQ)] (cyclo(KKKQLKKLLW)) | 6.2 to 12.5 µM | 6.2 to 12.5 µM | 1% | 3%
10 | CC(C)C[C@@H]1NC(=O)[C@H](CCC(N)=O)NC(=O)[C@H](CCCCN)NC(=O)[C@H](CCCCN)NC(=O)[C@H](CCCCN)NC(=O)[C@H](Cc2c[nH]c3ccccc23)NC(=O)[C@H](CC(C)C)NC(=O)[C@H](CCCCN)NC(=O)[C@H](CC(C)C)NC(=O)[C@H](CCCCN)NC1=O [BPC156W, c(LKLKLWKKKQ)] (cyclo(KKKQLKLKLW)) | 6.2 to 12.5 µM | 3.1 to 6.2 µM | 1% | 2%
11 | CC(C)C[C@@H]1NC(=O)[C@H](CCCCN)NC(=O)[C@H](CCC(N)=O)NC(=O)[C@H](CCCCN)NC(=O)[C@H](CCCCN)NC(=O)[C@H](CCCCN)NC(=O)[C@H](Cc2c[nH]c3ccccc23)NC(=O)[C@H](CCCCN)NC(=O)[C@H](CC(C)C)NC(=O)[C@H](CC(C)C)NC1=O [BPC160W, c(KLLLKWKKKQ)] (cyclo(KKKQKLLLKW)) | 6.2 to 12.5 µM | 6.2 to 12.5 µM | 3% | 6%
12 | CC(C)C[C@@H]1NC(=O)[C@H](CCC(N)=O)NC(=O)[C@H](CCCCN)NC(=O)[C@H](CCCCN)NC(=O)[C@H](CCCCN)NC(=O)[C@H](Cc2c[nH]c3ccccc23)NC(=O)[C@H](CCCCN)NC(=O)[C@H](CC(C)C)NC(=O)[C@H](CC(C)C)NC(=O)[C@H](CCCCN)NC1=O [BPC162W, c(LKLLKWKKKQ)] (cyclo(KKKQLKLLKW)) | 6.2 to 12.5 µM | 3.1 to 6.2 µM | 57% | 56%
13 | CC(C)C[C@@H]1NC(=O)[C@H](CCCCN)NC(=O)[C@H](CC(C)C)NC(=O)[C@H](CC(C)C)NC(=O)[C@H](CCC(N)=O)NC(=O)[C@H](CCCCN)NC(=O)[C@H](CCCCN)NC(=O)[C@H](CCCCN)NC(=O)[C@H](Cc2c[nH]c3ccccc23)NC(=O)[C@H](CCCCN)NC1=O [BPC164W, c(LLKLKWKKKQ)] (cyclo(KKKQLLKLKW)) | 6.2 to 12.5 µM | 6.2 to 12.5 µM | 6% | 6%
14 | CC(C)C[C@@H]1NC(=O)[C@H](CCC(N)=O)NC(=O)[C@H](CCCCN)NC(=O)[C@H](CCCCN)NC(=O)[C@H](CCCCN)NC(=O)[C@H](Cc2c[nH]c3ccccc23)NC(=O)[C@H](CCCCN)NC(=O)[C@H](CCCCN)NC(=O)[C@H](CC(C)C)NC(=O)[C@H](CC(C)C)NC1=O [BPC166W, c(LLLKKWKKKQ)] (cyclo(KKKQLLLKKW)) | 6.2 to 12.5 µM | 6.2 to 12.5 µM | 1% | 1%
15 | CC(C)C[C@@H]1NC(=O)[C@H](CCCCN)NC(=O)[C@H](CCCCN)NC(=O)[C@H](Cc2c[nH]c3ccccc23)NC(=O)[C@H](CCCCN)NC(=O)[C@H](CC(C)C)NC(=O)[C@H](CCCCN)NC(=O)[C@H](CCCCN)NC(=O)[C@H](CCCCN)NC(=O)[C@H](CCC(N)=O)NC1=O [BPC186W, c(KKKLKWKKLQ)] (cyclo(KKKLKWKKLQ)) | 12.5 to 25 µM | 6.2 to 12.5 µM | 1% | 1%
16 | CC(C)C[C@@H]1NC(=O)[C@H](CCCCN)NC(=O)[C@H](CCCCN)NC(=O)[C@H](Cc2c[nH]c3ccccc23)NC(=O)[C@H](CCCCN)NC(=O)[C@H](CCCCN)NC(=O)[C@H](CC(C)C)NC(=O)[C@H](CC(C)C)NC(=O)[C@H](CC(C)C)NC(=O)[C@H](CCC(N)=O)NC1=O [BPC188W, c(LLLKKWKKLQ)] (cyclo(KKLQLLLKKW)) | 6.2 to 12.5 µM | 12.5 to 25 µM | 33% | 48%
17 | CC(C)C[C@@H]1NC(=O)[C@H](CCC(N)=O)NC(=O)[C@H](CC(C)C)NC(=O)[C@H](CCCCN)NC(=O)[C@H](CCCCN)NC(=O)[C@H](Cc2c[nH]c3ccccc23)NC(=O)[C@H](CCCCN)NC(=O)[C@H](CCCCN)NC(=O)[C@H](CCCCN)NC(=O)[C@H](CCCCN)NC1=O [BPC190W, c(LKKKKWKKLQ)] (cyclo(KKKKWKKLQL)) | 25 to 50 µM | 12.5 to 25 µM | 1% | 3%
18 | CC(C)C[C@@H]1NC(=O)[C@H](CCCCN)NC(=O)[C@H](CC(C)C)NC(=O)[C@H](CC(C)C)NC(=O)[C@H](CCC(N)=O)NC(=O)[C@H](CC(C)C)NC(=O)[C@H](CCCCN)NC(=O)[C@H](CCCCN)NC(=O)[C@H](Cc2c[nH]c3ccccc23)NC(=O)[C@H](CCCCN)NC1=O [BPC196W, c(LLKLKWKKLQ)] (cyclo(KKLQLLKLKW)) | 3.1 to 6.2 µM | 1.6 to 3.1 µM | 2% | 3%

Reference: PMC6150173, “Tryptophan-Containing Cyclic Decapeptides with Activity against Plant Pathogenic Bacteria” (Molecules : A Journal of Synthetic Chemistry and Natural …, 2017)
